The record followed here is US9340542B2, “Propellane-based compounds and the use thereof” (Purdue Pharma L.P., priority 2013, dated 2016).

Assay [1] deals with T1, μ-opioid receptor (Homo sapiens (Human), UniProt P35372). The experiment in a line: μ-opioid receptor radioligand dose-displacement binding assay ([3H]-diprenorphine). As to conditions: binding affinity. The method, then: Radioligand dose-displacement binding assays for μ-opioid receptors used 0.3 nM [^3H]-diprenorphine (Perkin Elmer, Shelton, Conn.), with […] membrane protein/well in a final volume of 500 μl binding buffer (10 mM MgCl2, 1 mM EDTA, 5% DMSO, 50 mM HEPES, pH 7.4). Reactions were carried out in the absence or presence of increasing concentrations of unlabeled naloxone. All reactions were conducted in 96-deep well polypropylene plates for 2 hours at room temperature. Binding reactions were terminated by rapid filtration onto 96-well Unifilter GF/C filter plates (Perkin Elmer, Shelton, Conn.), presoaked in 0.5% polyethylenimine using a 96-well tissue harvester (Perkin Elmer, Shelton, Conn.) followed by performing three filtration washes with 500 μl of ice-cold binding buffer. Filter plates were subsequently dried at 50° C. for 2-3 hours. BetaScint scintillation cocktail (Perkin Elmer, Shelton, Conn.) was added (50 μl/well), and plates were counted using a Packard Top-Count for 1 min/well. The data were analyzed using the one-site competition curve fitting functions in GraphPad PRISM™ v. 3.0 or higher (San Diego, Calif.), or an in-house function for one-site competition curve-fitting.
(§1) In TABLE 1, binding affinity of certain Compounds of the Invention to the μ- and κ-opioid receptors was determined as described above.

Assay [2] deals with T2, κ opioid receptor (Homo sapiens (Human), UniProt P41145). In words: κ-opioid receptor radioligand dose-displacement binding assay ([3H]-U69,593). As to conditions: binding affinity. The protocol:
Membranes from HEK-293 cells, CHO or U-2 OS cells expressing the recombinant human κ opioid receptor (κ) were prepared by lysing cells in ice cold hypotonic buffer (2.5 mM MgCl2, 50 mM HEPES, pH 7.4) (10 mL/10 cm dish) followed by homogenization with a tissue grinder/Teflon pestle. Membranes were collected by centrifugation at 30,000×g for 15 min at 4° C. and pellets were resuspended in hypotonic buffer to a final concentration of 1-3 mg/mL. Protein concentrations were determined using the BioRad protein assay reagent with bovine serum albumen as standard. Aliquots of κ receptor membranes were stored at −80° C.
Radioligand dose displacement assays used 0.4 nM [^3H]-U69,593 (GE Healthcare, Piscataway, N.J.; 40 Ci/mmole) with 15 μg membrane protein (recombinant κ opioid receptor expressed in HEK 293 cells; in-house prep) in a final volume of 200 μl binding buffer (5% DMSO, 50 mM Trizma base, pH 7.4). Non-specific binding was determined in the presence of 10 μM unlabeled naloxone or U69,593. All reactions were performed in 96-well polypropylene plates for 1 hour at a temperature of about 25° C. Binding reactions were terminated by rapid filtration onto 96-well Unifilter GF/C filter plates (Perkin Elmer, Shelton, Conn.) presoaked in 0.5% polyethylenimine (Sigma). Harvesting was performed using a 96-well tissue harvester (Perkin Elmer, Shelton, Conn.) followed by five filtration washes with 200 μl ice-cold binding buffer. Filter plates were subsequently dried at 50° C. for 1-2 hours. Fifty μl/well scintillation cocktail (Perkin Elmer, Shelton, Conn.) was added and plates were counted in a Packard Top-Count for 1 min/well.
as §1

Assay [3] has as its target T1, μ-opioid receptor. The experiment in a line: μ-opioid receptor [35S]GTPγS functional assay. As to conditions: for EC50: GTPγS functional assay using U-2 OS cells; for Emax: maximal effect relative to DAMGO, U-2 OS cells. In kind it is biochemical. The method, then:
[^35S]GTPγS functional assays were conducted using freshly thawed p-receptor membranes prepared in-house from a cell line expressing recombinant μ opioid receptor in a HEK-293, CHO or U-2 OS cell background, or purchased from a commercial source (Perkin Elmer, Shelton. Conn.; or DiscovRx, Fremont, Calif.). Assay reactions were prepared by sequentially adding the following reagents to binding buffer (100 mM NaCl, 10 mM MgCl2, 20 mM HEPES, pH 7.4) on ice (final concentrations indicated): membrane protein ([…]), saponin ([…]), GDP ([…]) and [^35S]GTPγS (0.20 nM; Perkin Elmer, Shelton, Conn.). The prepared membrane solution (190 μl/well) was transferred to 96-shallow well polypropylene plates containing 10 μl of 20× concentrated stock solutions of the agonist [D-Ala^2, N-methyl-Phe^4 Gly-ol^5]-enkephalin (DAMGO) prepared in dimethyl sulfoxide (DMSO). Plates were incubated for 30 min at about 25° C. with shaking. Reactions were terminated by rapid filtration onto 96-well Unifilter GF/B filter plates (Perkin Elmer, Shelton, Conn.) using a 96-well tissue harvester (Perkin Elmer, Shelton, Conn.) followed by three filtration washes with 200 μl of ice-cold wash buffer (10 mM NaH2PO4, 10 mM Na2HPO4, pH 7.4). Filter plates were subsequently dried at 50° C. for 2-3 hours. BetaScint scintillation cocktail (Perkin Elmer, Shelton, Conn.) was added (50 μl/well) and plates were counted using a Packard Top-Count for 1 min/well. Data were analyzed using the sigmoidal dose-response curve fitting functions in GraphPad PRISM v. 3.0, or an in-house function for non-linear, sigmoidal dose-response curve-fitting.
μ GTP EC50 is the concentration of a compound providing 50% of the maximal response for the compound at a […] receptor.
μ GTP Emax (%) is the maximal effect elicited by a compound relative to the effect elicited by DAMGO, a standard μ agonist. Generally, the μ GTP Emax (%) value measures the efficacy of a compound to treat or prevent pain or other Conditions.
(§2) In TABLE 2, activity response of certain Compounds of the Invention to the μ- and κ-opioid receptors was determined as described above for functional assays using U-2 OS cells.

Assay [4] concerns the target T2, κ opioid receptor. The experiment in a line: κ-opioid receptor [35S]GTPγS functional assay. In kind it is biochemical. As to conditions: for EC50: GTPγS functional assay using U-2 OS cells; for Emax: maximal effect relative to U69,593, U-2 OS cells. The protocol: Functional [^35S]GTPγS binding assays were conducted as follows. κ opioid receptor membrane solution was prepared by sequentially adding final concentrations of 0.026 μg/μl κ membrane protein (in-house), 10 μg/mL saponin, 3 μM GDP and 0.20 nM [^35S]GTPγS to binding buffer (100 mM NaCl, 10 mM MgCl2, 20 mM HEPES, pH 7.4) on ice. The prepared membrane solution (190 μl/well) was transferred to 96-shallow well polypropylene plates containing 10 μl of 20× concentrated stock solutions of agonist prepared in DMSO. Plates were incubated for 30 min at a temperature of about 25° C. with shaking. Reactions were terminated by rapid filtration onto 96-well Unifilter GF/B filter plates (Perkin Elmer, Shelton, Conn.) using a 96-well tissue harvester (Packard) and followed by three filtration washes with 200 μl ice-cold binding buffer (10 mM NaH2PO4, 10 mM Na2HPO4, pH 7.4). Filter plates were subsequently dried at 50° C. for 2-3 hours. Fifty μl/well scintillation cocktail (Perkin Elmer, Shelton, Conn.) was added and plates were counted in a Packard Top-Count for 1 min/well.
κ GTP EC50 is the concentration of a compound providing 50% of the maximal response for the compound at a κ receptor.
κ GTP Emax (%) is the maximal effect elicited by a compound relative to the effect elicited by U69,593.
as §2

[5] abbreviates: read-out: Opioid Receptor Ki (nM) μ.

Each structure is given as a SMILES string. Where two headings read alike, the source gives them in different places. Bounds are passed on as bounds.

As to `COc1ccc2c(c1)[C@]13CCN(CC4CC4)C[C@]1(CC[C@@]1(C3)NC(=O)NC1=O)C2` [Compound 2, (3S,4aR,9,aR)-11-(cyclopropylmethyl)-6-methoxy-1,2,4,9-tetrahydrospiro[4a,9a-(ethanoiminomethano)fluorene-3,4′-imidazolidine]-2′,5′-dione], the Ki is 6250 ± 874 nM at μ-opioid receptor [1] (setting [5]) and 4760 ± 1110 nM at κ opioid receptor [2].

Take `COc1ccc2c(c1)[C@]13CCN(CC4CC4)C[C@]1(CC[C@]1(C3)NC(=O)NC1=O)C2` [Compound 3]: the Ki at μ-opioid receptor [1] (read-out: Opioid Receptor Ki μ) was more than 20000 nM; at κ opioid receptor [2], 8410 ± 650 nM.

For the compound `COC(=O)c1cc2c([nH]c1=O)C[C@@]13CCN(CC4CC4)C[C@@]1(Cc1ccc(OC)cc13)C2` [Compound 5, (5aS,10bR)-methyl 14-(cyclopropylmethyl)-9-methoxy-2-oxo-2,5,6,11-tetrahydro-1H-10b,5a-(ethanoiminomethano)indeno[2,1-g]quinoline-3-carboxylate], the Ki came to 9550 ± 1870 nM at μ-opioid receptor [1] (setting [5]) and 3600 ± 882 nM on κ opioid receptor [2].

For the compound `COc1ccc2c(c1)[C@]13CCN(CC4CC4)C[C@@]1(C2)Cc1cc(C(N)=O)c(=O)[nH]c1C3` [Compound 6, (5aS,10bR)-14-(cyclopropylmethyl)-9-methoxy-2-oxo-2,5,6,11-tetrahydro-1H-10b,5a-(ethanoiminomethano)indeno[2,1-g]quinoline-3-carboxamide], the Ki at μ-opioid receptor [1] (setting [5]) was determined as 15600 nM; at κ opioid receptor [2], 4280 ± 1090 nM.

For `NC(=O)c1cc2c([nH]c1=O)C[C@@]13CCN(CC4CC4)C[C@@]1(Cc1ccc(O)cc13)C2` [Compound 7, (5aS,10bR)-14-(cyclopropylmethyl)-9-hydroxy-2-oxo-2,5,6,11-tetrabydro-1H-10b,5a-(ethanoiminomethano)indeno[2,1-g]quinoline-3-carboxamide], the EC50 is 412 ± 66.4 nM on μ-opioid receptor [3] and 570 ± 85.4 nM at κ opioid receptor [4]. For the same compound, the Emax on μ-opioid receptor [3] worked out at 19.3 ± 3.18%; on κ opioid receptor [4], 103 ± 5.21%. Moreover, the Ki at μ-opioid receptor [1] (setting [5]) amounted to 770 ± 102 nM; on κ opioid receptor [2], 148 ± 39.8 nM.

Consider `O=C1NC(=O)[C@@]2(CC[C@@]34Cc5ccc(O)cc5[C@@]3(CCN(CC3CC3)C4)C2)N1` [Compound 8, (3S,4aR,9aR)-11-(cyclopropylmethyl)-6-hydroxy-1,2,4,9-tetrahydrospiro[4a,9a-(ethanoiminomethano)fluorene-3,4′-imidazolidine]-2′,5′-dione], for which the EC50 at μ-opioid receptor [3] amounted to 414 ± 62.8 nM; on κ opioid receptor [4], 384 ± 36.9 nM. Also, the Emax on μ-opioid receptor [3] came out at 86.7 ± 1.67%; on κ opioid receptor [4] it was 119 ± 4.41%. The Ki at μ-opioid receptor [1] (setting [5]) is 472 ± 93 nM; at κ opioid receptor [2] it was 72.5 ± 18.3 nM.

As for `O=C1NC(=O)[C@]2(CC[C@@]34Cc5ccc(O)cc5[C@@]3(CCN(CC3CC3)C4)C2)N1` [Compound 9, (3R,4aR,9aR)-11-(cyclopropylmethyl)-6-hydroxy-1,2,4,9-tetrahydrospiro[4a,9a-(ethanoiminomethano)fluorene-3,4′-imidazolidine]-2′,5′-dione], the EC50 on μ-opioid receptor [3] is 309 ± 36.3 nM; at κ opioid receptor [4], 318.8 ± 1.38 nM. The Emax turned out to be 94 ± 3.06% at μ-opioid receptor [3] and 109 ± 7.09% at κ opioid receptor [4]. The Ki was determined as 676 ± 74.1 nM at μ-opioid receptor [1] (setting [5]) and 148 ± 25.2 nM at κ opioid receptor [2].
